Measurements as given in the supplement of paper PMC10883282.
Counter-ions that a name gives are not always drawn. ± gives the standard deviation of the averaged measurements.

Test system: SYO-1
Assay: relative viability vs DMSO control (72 h) (fraction); higher = more viable cells
In short: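 A 5 µM positive control and 0.1% DMSO vehicle ran alongside sarcoma cell lines seeded in 384-well plates to reach 80–90% confluence. Serially diluted compound, 2.5 µl from source plates of 10 mM to 0.0002 mM, was added after 24 h, and the plates were held 72 h at 37 °C, 5% CO2. Relative viability was worked out from ATPLite readings as percent growth averaged over up to triplicate wells. The values were rescaled so that 1 is full and 0 is none.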

Row | Compound | relative viability (0.00017 µM) | relative viability (0.00051 µM) | relative viability (0.00152 µM) | relative viability (0.00457 µM) | relative viability (0.01372 µM) | relative viability (0.04115 µM) | relative viability (0.1235 µM) | relative viability (0.3704 µM) | relative viability (1.111 µM) | relative viability (3.333 µM) | relative viability (10 µM)
1 | CC(C)(C)c1cc(NC(=O)Nc2ccc(-c3cn4c(n3)sc3cc(OCCN5CCOCC5)ccc34)cc2)no1 [Quizartinib] | 0.978 ± 0.017 | 0.963 ± 0.02 | 0.973 ± 0.044 | 0.943 ± 0.035 | 0.935 ± 0.034 | 0.9229 ± 0.0014 | 0.873 ± 0.015 | 0.715 ± 0.043 | 0.67 ± 0.046 | 0.646 ± 0.034 | 0.627 ± 0.044
2 | CNC(=O)c1ccc(-c2cnc3ncc(Cc4ccc5ncccc5c4)n3n2)cc1F [Capmatinib] | 0.956 ± 0.039 | 0.962 ± 0.044 | 0.966 ± 0.028 | 0.968 ± 0.015 | 0.97 ± 0.03 | 0.961 ± 0.042 | 0.97 ± 0.033 | 0.967 ± 0.026 | 0.994 ± 0.023 | 1.03 ± 0.03 | 1.01 ± 0.067
3 | CC(C)N1CCN(Cc2cnc(-c3cc(-c4cccc5[nH]ccc45)cc4[nH]ncc34)o2)CC1 [Nemiralisib] | 1.02 ± 0.013 | 0.981 ± 0.046 | 0.981 ± 0.036 | 0.974 ± 0.049 | 0.981 ± 0.025 | 0.991 ± 0.02 | 0.9659 ± 0.0068 | 0.968 ± 0.017 | 0.882 ± 0.025 | 0.697 ± 0.028 | -0.0515 ± 0.012
4 | C[C@@H](c1ccc2nccn2c1)n1nnc2ncc(-c3cnn(C)c3)nc21 [Volitinib] | 0.96 ± 0.038 | 0.999 ± 0.065 | 1 ± 0.025 | 0.979 ± 0.03 | 0.985 ± 0.024 | 0.992 ± 0.032 | 1.01 ± 0.087 | 0.98 ± 0.051 | 0.996 ± 0.058 | 0.977 ± 0.085 | 1.03 ± 0.047
5 | COc1c(OCCCN2CCOCC2)ccc2c1N=C(NC(=O)c1cnc(N)nc1)N1CCN=C21 [Copanlisib] | 1 ± 0.011 | 0.945 ± 0.023 | 0.911 ± 0.051 | 0.79 ± 0.06 | 0.754 ± 0.041 | 0.693 ± 0.02 | 0.651 ± 0.052 | 0.52 ± 0.02 | 0.374 ± 0.012 | 0.171 ± 0.0084 | 0.0829 ± 0.006
6 | CCN1CCN(Cc2ccc(Nc3ncc(F)c(-c4cc(F)c5nc(C)n(C(C)C)c5c4)n3)nc2)CC1 [Abemaciclib] | 0.953 ± 0.047 | 0.936 ± 0.043 | 0.925 ± 0.029 | 0.905 ± 0.051 | 0.849 ± 0.059 | 0.775 ± 0.064 | 0.657 ± 0.051 | 0.519 ± 0.039 | 0.461 ± 0.015 | 0.353 ± 0.059 | 0.0228 ± 0.055
7 | C[C@]1(O)C[C@@H](c2nc(-c3ccc4ccc(-c5ccccc5)nc4c3)c3c(N)nccn32)C1 [Linsitinib] | 1.01 ± 0.043 | 1.01 ± 0.013 | 0.97 ± 0.046 | 0.969 ± 0.018 | 0.922 ± 0.035 | 0.87 ± 0.083 | 0.857 ± 0.035 | 0.823 ± 0.012 | 0.833 ± 0.04 | 0.734 ± 0.025 | 0.57 ± 0.028
8 | Cc1ccc(NC(=O)c2ccc(CN3CCN(C)CC3)cc2)cc1Nc1nc(-c2cccnc2)cs1 [Masitinib] | 1.04 ± 0.023 | 1.02 ± 0.02 | 1.01 ± 0.027 | 1.01 ± 0.026 | 0.974 ± 0.026 | 0.916 ± 0.039 | 0.801 ± 0.021 | 0.676 ± 0.032 | 0.553 ± 0.038 | 0.242 ± 0.033 | -0.0235 ± 0.0061
9 | CN1CCN(c2ccc3nc(-c4c(N)c5c(F)cccc5[nH]c4=O)[nH]c3c2)CC1 [Dovitinib] | 1.04 ± 0.049 | 1.038 ± 0.0075 | 0.992 ± 0.037 | 0.998 ± 0.03 | 0.974 ± 0.014 | 0.927 ± 0.035 | 0.833 ± 0.0092 | 0.556 ± 0.012 | 0.388 ± 0.025 | 0.17 ± 0.023 | -0.0198 ± 0.0062
10 | CC(=O)Nc1cccc(-n2c(=O)n(C3CC3)c(=O)c3c(Nc4ccc(I)cc4F)n(C)c(=O)c(C)c32)c1 [Trametinib] | 0.997 ± 0.025 | 0.983 ± 0.057 | 0.925 ± 0.031 | 0.889 ± 0.034 | 0.865 ± 0.027 | 0.832 ± 0.056 | 0.765 ± 0.05 | 0.735 ± 0.038 | 0.687 ± 0.061 | 0.687 ± 0.037 | 0.671 ± 0.048
11 | C=CC(=O)N1CCC[C@@H](n2nc(-c3ccc(Oc4ccccc4)cc3)c3c(N)ncnc32)C1 [Ibrutinib] | 0.992 ± 0.034 | 0.959 ± 0.047 | 0.923 ± 0.036 | 0.933 ± 0.042 | 0.923 ± 0.046 | 0.892 ± 0.045 | 0.868 ± 0.041 | 0.861 ± 0.026 | 0.759 ± 0.055 | 0.557 ± 0.027 | 0.39 ± 0.02
12 | COc1cc2/c(=N/c3ccc(Br)cc3F)nc[nH]c2cc1OCC1CCN(C)CC1 [Vandetanib] | 0.926 ± 0.02 | 0.924 ± 0.043 | 0.927 ± 0.028 | 0.899 ± 0.067 | 0.889 ± 0.041 | 0.848 ± 0.034 | 0.793 ± 0.011 | 0.65 ± 0.015 | 0.4003 ± 0.0022 | 0.0998 ± 0.016 | -0.00567 ± 0.0018
13 | C[C@@H]1COCCN1c1cc(-c2ccnn2C)c2ccnc(-c3ccn[nH]3)c2n1 | 0.9163 ± 0.0052 | 0.928 ± 0.028 | 0.911 ± 0.043 | 0.903 ± 0.06 | 0.799 ± 0.07 | 0.627 ± 0.044 | 0.415 ± 0.03 | 0.286 ± 0.018 | 0.199 ± 0.0027 | 0.116 ± 0.0028 | 0.0976 ± 0.0066
14 | COc1cccc2c1C(=O)c1c(O)c3c(c(O)c1C2=O)C[C@@](O)(C(=O)CO)C[C@@H]3O[C@H]1C[C@H](N)[C@H](O)[C@H](C)O1 [Doxorubicin Hydrochloride] | 0.967 ± 0.064 | 0.938 ± 0.048 | 0.899 ± 0.054 | 0.818 ± 0.06 | 0.549 ± 0.038 | 0.29 ± 0.025 | 0.175 ± 0.035 | 0.127 ± 0.015 | 0.0941 ± 0.01 | 0.0937 ± 0.025 | 0.0765 ± 0.011
15 | O=C(Nc1cnn2ccc(N3CCC[C@@H]3c3cc(F)ccc3F)nc12)N1CC[C@H](O)C1 [Larotrectinib] | 1.034 ± 0.0067 | 1.02 ± 0.021 | 0.979 ± 0.016 | 0.973 ± 0.047 | 0.946 ± 0.06 | 0.948 ± 0.063 | 0.926 ± 0.075 | 0.937 ± 0.043 | 0.885 ± 0.058 | 0.903 ± 0.062 | 0.875 ± 0.055
16 | Cc1cc(C)c(/C=C2\C(=O)Nc3ccccc32)[nH]1 [Semaxanib] | 0.922 ± 0.014 | 0.915 ± 0.01 | 0.917 ± 0.014 | 0.908 ± 0.025 | 0.87 ± 0.035 | 0.824 ± 0.056 | 0.774 ± 0.047 | 0.721 ± 0.03 | 0.649 ± 0.046 | 0.632 ± 0.041 | 0.579 ± 0.0071
17 | CC1(C)CNc2cc(NC(=O)c3cccnc3NCc3ccncc3)ccc21 [Motesanib] | 0.962 ± 0.012 | 0.979 ± 0.043 | 0.996 ± 0.05 | 0.974 ± 0.043 | 0.973 ± 0.025 | 0.914 ± 0.036 | 0.866 ± 0.029 | 0.777 ± 0.054 | 0.724 ± 0.021 | 0.648 ± 0.016 | 0.494 ± 0.019
18 | Cc1nc(-c2cn3c(n2)-c2ccc(-c4cnn(C(C)(C)C(N)=O)c4)cc2OCC3)n(C(C)C)n1 [Taselisib] | 0.9262 ± 0.0077 | 0.924 ± 0.029 | 0.924 ± 0.035 | 0.895 ± 0.051 | 0.864 ± 0.042 | 0.794 ± 0.053 | 0.759 ± 0.041 | 0.721 ± 0.046 | 0.684 ± 0.046 | 0.61 ± 0.034 | 0.476 ± 0.033
19 | CC(C)NC(=O)C1CCC(n2c(NC(=O)c3ccc(F)cc3)nc3ccc(CN4CCC(C(C)(C)O)CC4)cc32)CC1 (centres undefined) [Belizatinib] | 0.993 ± 0.062 | 0.983 ± 0.019 | 0.983 ± 0.055 | 1 ± 0.069 | 0.96 ± 0.03 | 0.967 ± 0.044 | 0.902 ± 0.052 | 0.798 ± 0.046 | 0.639 ± 0.046 | 0.336 ± 0.018 | 0.155 ± 0.03
